Like-named read-outs stand apart in the source and are kept apart here.
Key:
S. aureus = format: cell-based, Staphylococcus aureus (ATCC 25923); settings: radial diffusion, 1% agarose underlay, 10 mM sodium phosphate, 100 mM NaCl, pH 7.4, 3 individual experiments, quadruplicates
E. faecalis = assay: radial diffusion assay (growth inhibition); format: cell-based, Enterococcus faecalis (ATCC 29212); settings: 1% agarose underlay, 10 mM sodium phosphate, 100 mM NaCl, pH 7.4, 3 individual experiments, quadruplicates
E. coli = format: cell-based, Escherichia coli (ATCC 25922); settings: radial diffusion, 1% agarose underlay, 10 mM sodium phosphate, 100 mM NaCl, pH 7.4, 3 individual experiments, quadruplicates
[1] = system: VSV-G pseudotyped lentiviral vector VLΔBH
P4CCR5 cells = assay: BrdU incorporation cell proliferation assay; format: cell-based
Procedure: 293-Luc cells were plated in 96 well plates at a density of 2 × 10^3 cells / well. After 48 hours, 50 μl of MTT-solution (3 mg/ml) was added and incubated at 37° C under 5% CO2 for 1 hour. After this time medium was removed and 100 μl 0.04 N HCL + 10% SDS was used to dissolve the resulting blue formazan crystals in living cells. The optical density was determined at 550 nm. Each single value of the triplicates was expressed as percent of the mean of triplicates of control cultures infected with the same vector in the absence of HDPs and the mean and the standard deviation of the percent values was calculated for each triplicate. In addition the BrdU Cell proliferation ELISA with chemiluminescence detection (Roche Diagnostics GmbH, Mannheim, Germany) was performed. After 293-Luc cells or P4CCR5 cells were plated in 96 well plates at a density of 2 × 10^3 cells/well BrdU (5-bromo-2'-deoxyuridine) was added to the cells with a resulting concentration of 10 μM for the last 22 h of the incubation period. After removing the culture medium, the cells were fixed and DNA was denatured in one step with Fixdenat. Thereafter the cells were incubated with Anti-BrdU-POD for 1 h at room temperature. The chemiluminescence detection was measured after automatic injection of substrate solution with a microplate-luminometer (Orion, Berthold detection systems, Pforzheim, Germany).
To determine the effect of HDPs on vector infectivity and cell metabolism, 293A target cells were plated in triplicates into 96-well plates at 2 × 10^3 cells / well. […] The affect of HDPs on cell metabolism was determined in parallel by plating 293-Luc cells exactly the same way as 293A cells and the luciferase activity was determined after one (as a control to inhibition of adenoviral vector infectivity) or two (as a control of lentiviral infectivity) days of incubation with HDPs. For GFP-expressing vectors, vector titers were calculated from the number of GFP positive cells per well as previously described and the BrdU incorporation assay was used to monitor cytotoxic effects.

S. epidermidis = assay: radial diffusion assay (growth inhibition); format: cell-based, Staphylococcus epidermidis (ATCC 12228); settings: 1% agarose underlay, 10 mM sodium phosphate, 100 mM NaCl, pH 7.4, 3 individual experiments, quadruplicates
A. baumanii = assay: radial diffusion assay (growth inhibition); format: cell-based, Acinetobacter baumannii (ATCC 19606); settings: 1% agarose underlay, 10 mM sodium phosphate, 100 mM NaCl, pH 7.4, 3 individual experiments, quadruplicates, > 128 = not susceptible
[2] = system: retroviral vector (pRV-172) containing the amphotropic MLV Env; format: cell-based
[3] = system: HIV vectors containing the HIV-1 envelope; parameters: IC50, HIV-1 Env mediated vector entry, as printed in the picture of Figure 6 A, B: unit not given beside the values
wild type HIV-1 = system: wild type HIV-1; parameters: IC50, wild type HIV-1 infection, as printed in the picture of Figure 6 C, D: unit not given beside the values; settings: for IC50, wild type HIV-1 infection, as printed in the picture of Figure 6 C, D: P4CCR5 indicator cells, virus titer
P. aeruginosa = assay: radial diffusion assay (growth inhibition); format: cell-based, Pseudomonas aeruginosa (ATCC 27853); settings: 1% agarose underlay, 10 mM sodium phosphate, 100 mM NaCl, pH 7.4, 3 individual experiments, quadruplicates, > 128 = not susceptible

Row | Molecule | M E C (minimal effectory concentration) (S. aureus) | M E C (minimal effectory concentration) (E. faecalis) | M E C (minimal effectory concentration) (E. coli) | 50% inhibitory concentration (IC50) for the VLΔBH lentiviral vector [1] | specific inhibition of early steps of infection (lentiviral vector versus stably transduced target cells) [1] | inhibitory effects on cell proliferation at the IC50 concentrations (25 μg/ml LL37, 14 μg/ml PG-1) (P4CCR5 cells) | M E C (minimal effectory concentration) (S. epidermidis) | M E C (minimal effectory concentration) (A. baumanii) | dose dependent reduction in luciferase activity, MLV vector compared with lentiviral vector ([2]; 293A cells, triplicates of two independent experiments) | IC50, HIV-1 Env mediated vector entry, as printed in the picture of Figure 6 A, B ([3]; P4CCR5 cells, GFP vector titer) | IC50, inhibition of HIV vectors containing the HIV-1 envelope ([3]; vectors containing the envelope) [µg/mL] | IC50, wild type HIV-1 infection, as printed in the picture of Figure 6 C, D (wild type HIV-1) | concentration up to which inhibitory effects on cell proliferation were not observed (P4CCR5 cells) [µg/mL] | M E C (minimal effectory concentration) (P. aeruginosa) | dose dependent reduction in luciferase activity, MLV vector compared with lentiviral vector [2] | IC50, HIV-1 Env mediated vector entry, as printed in the picture of Figure 6 A, B [3] | IC50 against wild type HIV-1 (wild type HIV-1; wild type)
1 | CC1(C)S[C@@H]2[C@H](NC(=O)[C@H](N)c3ccccc3)C(=O)N2[C@H]1C(=O)O [Ampicillin] | 10,50 ± 0,2 μg/ ml | 28,85 ± 0,6 μg/ ml | 18,9 ± 0,9 μg/ ml |  |  |  |  |  |  |  |  |  |  |  |  |  | 
2 | CC[C@H](C)[C@H](NC(=O)[C@H](CCCCN)NC(=O)[C@H](CCC(=O)O)NC(=O)[C@H](CCCCN)NC(=O)[C@H](CO)NC(=O)[C@H](CCCCN)NC(=O)[C@H](CCCNC(=N)N)NC(=O)[C@H](Cc1ccccc1)NC(=O)[C@H](Cc1ccccc1)NC(=O)[C@H](CC(=O)O)NC(=O)CNC(=O)[C@H](CC(C)C)NC(=O)[C@@H](N)CC(C)C)C(=O)NCC(=O)N[C@@H](CCCCN)C(=O)N[C@@H](CCC(=O)O)C(=O)N[C@@H](Cc1ccccc1)C(=O)N[C@@H](CCCCN)C(=O)N[C@@H](CCCNC(=N)N)C(=O)N[C@H](C(=O)N[C@H](C(=O)N[C@@H](CCC(N)=O)C(=O)N[C@@H](CCCNC(=N)N)C(=O)N[C@H](C(=O)N[C@@H](CCCCN)C(=O)N[C@@H](CC(=O)O)C(=O)N[C@@H](Cc1ccccc1)C(=O)N[C@@H](CC(C)C)C(=O)N[C@@H](CCCNC(=N)N)C(=O)N[C@@H](CC(N)=O)C(=O)N[C@@H](CC(C)C)C(=O)N[C@H](C(=O)N1CCC[C@H]1C(=O)N[C@@H](CCCNC(=N)N)C(=O)N[C@H](C(=O)N[C@@H](CCC(=O)O)C(=O)N[C@@H](CO)C(=O)O)[C@@H](C)O)C(C)C)[C@@H](C)CC)C(C)C)[C@@H](C)CC [LL37] | 4,74 ± 0,1 μg/ ml | 13,61 ± 0,7 μg/ ml | 11,66 ± 1,5 μg/ ml | approximately 30 μg/ml | Specific inhibition | only minimal inhibitory effects | 13,09 ± 0,6 μg/ ml | 13,13 ± 0,2 μg/ ml | very similar | 25.1 | 25 | 87.8 |  |  |  |  | 
3 | CC(C)C[C@H](NC(=O)[C@H](CCCNC(=N)N)NC(=O)CNC(=O)CNC(=O)[C@@H](N)CCCNC(=N)N)C(=O)N[C@H]1CSSC[C@@H](C(=O)N[C@H](C(=O)NCC(=O)N[C@@H](CCCNC(=N)N)C(N)=O)C(C)C)NC(=O)[C@H](C(C)C)NC(=O)[C@@H]2CSSC[C@H](NC(=O)[C@H](Cc3ccc(O)cc3)NC1=O)C(=O)N[C@@H](CCCNC(=N)N)C(=O)N[C@@H](CCCNC(=N)N)C(=O)N[C@@H](CCCNC(=N)N)C(=O)N[C@@H](Cc1ccccc1)C(=O)N2 [Protegrin-1] | 0,91 ± 0,04 μg/ ml | 4,46 ± 0,3 μg/ ml | 2 ± 0,1 μg/ ml | ~16.8 µg/mL | Specific inhibition | only minimal inhibitory effects | 4,48 ± 0,2 μg/ ml | 5,01 ± 0,2 μg/ ml |  |  |  | 7.2 | > 50 | 3,3 ± 1,1 μg/ ml | very similar | 14.3 | below 10 μg/ml
4 | Plectasin | 2,42 ± 0,4 μg/ ml | 10,60 ± 0,7 μg/ ml | 79,10 ± 0,3 μg/ ml |  |  |  | 8,20 ± 0,5 μg/ ml | > 128 µg/mL |  |  |  |  |  | > 128 µg/mL |  |  | 

Source: paper PMC548510, “Inhibition of early steps in the lentiviral replication cycle by cathelicidin host defense peptides” (Retrovirology, 2005)
